Paper PMC3003687, “α-Galactosylceramide Analogs with Weak Agonist Activity for Human iNKT Cells Define New Candidate Anti-Inflammatory Agents” (PLoS ONE, 2010)

How the values were obtained:
human iNKT cell clones = assay: Cytokine ELISA of human iNKT cell clones stimulated with glycolipid-pulsed CD1d-transfected HeLa cells; type: cell-based; conditions: for EC50: Homo sapiens, iNKT, HDD3 clone, IL-4 levels did not reach a plateau; for iNKT cell clone cytokine response / agonist activity: dose range, IFNγ, IL-4, IL-13, clones HDD3, HDD11, HDE3, HDA7
Procedure: Capture ELISA assays were used for measurement of cytokine responses of human iNKT cells to αGalCer analogs. One day prior to the experiment, CD1d transfected HeLa cells were plated at 25×10^3 cells/well in 100 µL of medium in flat-bottom 96 well plates. Glycolipids were then added in 100 µL of medium to give final concentrations ranging from 0.05 to 10^4 nM. The APCs were incubated for approximately 18 hours with the glycolipids and then irradiated (10,000 Rad) and washed twice with PBS prior to addition of 25×10^3 iNKT cells well in 300 µL. Supernatants were harvested after 24 hours of co-culture and stored frozen at -20°C. After thawing, aliquots of the supernatants were assayed for specific cytokines by ELISA using capture and biotin-labeled detection antibody pairs specific for GM-CSF, IL-2, IL-4, IL-12p70 and IL-13 (all obtained from BD Biosciences), IFNγ (Thermo-Scientific) or IL-18 (MBL). Specific signals were developed using HRP- conjugated streptavidin (BD Biosciences) and Turbo TMB substrate (Thermo-Scientific). Supernatants were tested pure and/or diluted to give values within a quantitative linear standard curve generated with recombinant cytokines. Curves of dose-dependent cytokine responses and graphs were plotted using the Graphpad Prism Software. EC50 values were calculated using the function log (agonist) response with variable slope, and statistical analyses were carried out using the same software. To calculate concentration-dependent cytokine ratios, IL-4/IFNγ and IL-13/IFNγ ratios were calculated using cytokine values from which background levels (i.e. levels in cultures receiving DMSO vehicle alone) were subtracted. Ratios were calculated by dividing IL-4 or IL-13 concentrations in pg/mL by IFNγ concentration in ng/mL.

hCD1d = molecular target: T1, hCD1d (Homo sapiens, UniProt P15813); assay: Loading of hCD1d tetramers with variable glycolipid to CD1d ratios; type: binding; conditions: for lipid excess at which tetramers were efficiently loaded: 20 nM tetramers, 25 to 1000 fold molar excess of glycolipid to hCD1d, HDD3 clone
T1 construct: we generated soluble and fluorescent tetrameric hCD1d molecules loaded with each of the glycolipid analogs; made in house
From the text: (§1) To characterize in more detail the iNKT cell TCR recognition of αGalCer analogs presented by human CD1d, we generated soluble and fluorescent tetrameric hCD1d molecules loaded with each of the glycolipid analogs. […] This was similar to the previously reported failure of mouse CD1d tetramer loaded with lysosulfatide to bind detectably to murine non-invariant and sulfatide specific NKT cells, despite a clear reactivity to this lipid upon presentation by APCs; [40]. […] To quantitate their binding avidities to iNKT cell TCRs, we used titration of analog-loaded hCD1d tetramers to determine equilibrium dissociation constants (KD), which are inversely proportional to avidity (Figure 3A and 3B).
(§2) Figure 3 Characterization of human iNKT cell TCR interactions with analog-loaded tetramers. (A) iNKT cell clones were stained with titrated amounts of hCD1d tetramers loaded with the indicated glycolipids (abbreviations as in legend to Figure 1), and the measured MFI values are plotted for selected glycolipids. (B) The equilibrium dissociation constants (KD, inversely proportional to TCR avidity) were determined as the concentrations of tetramers required to yield 50% of maximal binding. Data shown were obtained using the CD4^+ iNKT cell clone HDD3, and similar results (not shown) were obtained with a second CD4^+ clone (HDD11) and a CD4^−8^− double negative iNKT cell clone (HDE3). (C) Analysis of iNKT cell clones labeled with 20 nM of hCD1d tetramers which were loaded with variable excesses of analog to constant hCD1d (25 to 1000 fold molar excess of glycolipid to hCD1d protein). The measured MFI values were normalized as the percent of the maximum staining intensity obtained with each analog loaded tetramer. Data presented were generated with HDD3 (CD4+) iNKT cell clone, and similar results (not shown) were obtained with HDE3 (DN) clone.

[1] = system: human iNKT cells and NK cells; assay: In vitro transactivation assay (CFSE-labeled iNKT cells co-cultured with PBMC); type: cell-based; conditions: 24 h; for IL-12 levels in supernatants / IL-13 levels in supernatants / IL-18 levels in supernatants / global IFNγ production in supernatants / ability to activate iNKT cells and stimulate NK cell transactivation (IFNγ+ cells): 100 nM; for IL-12 levels in supernatants / IL-13 levels in supernatants / IL-18 levels in supernatants / global IFNγ production in supernatants: ELISA; for ability to activate iNKT cells and stimulate NK cell transactivation (IFNγ+ cells): iNKT/PBMC 1/10, compared with KRN7000
Procedure: iNKT cells were stained for 5 minutes with 1–20 µM of CFSE (Molecular probes) and 5% FCS in PBS and washed twice. As a positive control, a fraction of CFSE-labeled iNKT cells were preactivated for 30 minutes with 1 µg/mL of PMA and 250 ng/mL of Ionomycin (Sigma-Aldrich) in culture medium and extensively washed. The experiment was initiated by adding CFSE-labeled unstimulated or PMA/Ionomycin-preactivated iNKT cells to freshly prepared PBMC pulsed with vehicle or αGalCer analogs at the indicated concentrations and at an iNKT/PBMC ratio of 1/10 or 1/40. Supernatants and cells were harvested from parallel conditions after the indicated time of co-culture. For intracellular cytokine staining, brefeldin A (Golgiplug, BD Biosciences) was added 4 h before harvesting the cells, which were fixed with 1% paraformaldehyde and permeabilized with 0.1% saponin (Sigma-Aldrich) prior to mAb staining. Experiments with blocking antibodies were performed with 10 µg/mL of preservative-free mAbs, including isotype matched control, anti-IL-2, anti-IL-12, anti-IFNγ and anti-CD40L (all from BD Biosciences) or anti-IL-18 (MBL). For detection of CD40L expression by iNKT cells, co-cultures of iNKT and PBMC were prepared as above, except that monensin (Golgistop, BD Biosciences) and fluorescent CD40L specific mAb (1/10 or 1/20 final dilution) were added at the beginning of the experiment, as previously described.
Figure 6 A novel in vitro “transactivation assay” to assess the ability of human iNKT cells to activate other leukocytes. (A) Format for analysis of transactivation of bystander leukocytes. Flow cytometric analysis was carried out for culture containing iNKT cells co-cultured for 24 hours with fresh human PBMC at a 1/10 ratio. For the intracellular detection of IFNγ, Brefeldin A was added for the last 4 hours. Representative electronic gating is shown for the discrimination of CFSE-labeled iNKT cells, B cells, T cells, and NK cells to measure IFNγ expression (or CD69 expression, not shown). Filled black histograms show staining with vehicle control and are overlaid with open gray histograms for stimulation with 100 nM of KRN7000. (B) Dose-dependent IFNγ and CD40L expression by iNKT cells (top and middle graph, respectively) and IFNγ production by transactivated NK cells (bottom graph), after 24 h of co-culture of CFSE-labeled iNKT cells and PBMCs at a 1/10 ratios and the indicated concentration of either KRN7000 (black filled circles) or the adamantanoyl (AD) analog (open circles). Data are presented for a CD4^+ clone (HDD3), and similar results (not shown) were obtained with a DN clone (HDE3). (C) Effect of specific blockade of various cytokines and CD40L on the activation of iNKT cells and transactivated NK cells. CFSE-labeled iNKT cells and PBMCs were co-cultured at a 1/40 ratio for the indicated time, in the presence of KRN7000 at 25 nM and 10 µg/mL of isotype matched control or specific blocking antibodies as indicated. Average percentages of IFNγ^+ iNKT cells and NK cells, assessed by intracellular staining at 24, 48 and 66 hours, are indicated in the left and right plots, respectively.
Figure 7 Comparison of αGalCer analogs for their ability to induce NK cell transactivation. (A) iNKT cell clones were co-cultured for 24 hours with fresh human PBMC at a 1/10 ratio with 100 nM of the indicated analogs, and Brefeldin A was added for the last 4 hours. The percentages of IFNγ^+ iNKT cells (open bars) and IFNγ^+ NK cells (filled bars) are indicated. Cytokine levels were assessed by ELISA in supernatants from identical conditions in absence of Brefeldin A treatment: (B) IFNγ levels (open bars) and IL-13 levels (filled bars); the detection limit was 82.3 ng/mL for both cytokines. (C) IL-12 levels (open bars) and IL-18 levels (filled bars); the detection limit was 27.4 ng/mL. Results obtained with a CD4^+ clone (HDD3) are presented, and similar data (not shown) were obtained with a DN clone (HDE3).

Human iNKT TCRs = Human iNKT TCRs (Homo sapiens, UniProt A0A075B6N4+A0A0B4J240+P15813); assay: Equilibrium binding of analog-loaded hCD1d tetramers to iNKT cell clones
From the text: For flow cytometric analysis, 6B11 (Vα24Jα18 specific) and mAbs specific for human CD3, CD4, CD8α, CD19, CD40L (CD154), CD56, CD69, GM-CSF & IFNγ were obtained from BD Biosciences. IL-4 and IL-13 specific mAbs were from Biolegend. Vα24 (C15) and Vβ11 (C21) specific mAb were from Immunotech. For antibody blocking in culture assays, non-specific isotype matched control, IL-2, IFNγ, IL-12p70 and CD40L specific mAbs without preservatives were obtained from BD Biosciences and IL-18 specific mAb from Medical & Biological Laboratories (MBL, Nagoya, Japan). Phycoerythrin and allophycocyanin labeled human CD1d tetramers were prepared in our laboratory as previously described. Curves of tetramer equilibrium binding constants and graphs were plotted using the Graphpad Prism Software (Version 5). KD values were calculated using the function non-linear fit (hyperbola, one binding site).
as §1, §2

human iNKT cells = conditions: cited from earlier work

Row | EC50 (human iNKT cell clones) | lipid excess at which tetramers were efficiently loaded (hCD1d) | binding to hCD1d (hCD1d) | SMILES | IL-12 levels in supernatants [1] | IL-13 levels in supernatants [1] | IL-18 levels in supernatants [1] | global IFNγ production in supernatants [1] | ability to activate iNKT cells and stimulate NK cell transactivation (IFNγ+ cells) [1] | CD40L and IFNγ expression by iNKT cells ([1]; iNKT/PBMC 1/10, dose range) | reactivity of HDD3 iNKT cell clone (human iNKT cell clones; CD4+ clone HDD3) | reactivity of a fraction of the iNKT cell clones tested (human iNKT cell clones; primarily IL-13 production, limited induction of IFNγ) | clones with detectable reactivity (human iNKT cell clones; six clones tested) | staining of iNKT cell clones by analog-loaded hCD1d tetramers (Human iNKT TCRs) | stimulation of human iNKT cells in culture (human iNKT cells) | iNKT cell clone cytokine response / agonist activity (human iNKT cell clones)
1 | > 10 µM | 25–50 fold | – | CCCCCCCCCCCCCC[C@@H](O)[C@@H](O)[C@H](CO[C@H]1O[C@H](CO)[C@H](O)[C@H](O)[C@H]1O)NC(=O)c1cccc(Br)c1 [BB] | undetectable | lower, but still detectable, IL-13 levels | remained low | lower global IFNγ production | lower degree of iNKT cell activation with a limited transactivation of NK cells | – | – | – | – | – | – | –
2 | > 10 µM | much higher lipid excess was necessary | weak binding to hCD1d | CCCCCCCCCCCCCC[C@@H](O)[C@@H](O)[C@H](CO[C@H]1O[C@H](CO)[C@H](O)[C@H](O)[C@H]1O)NC(=O)c1ccc(F)c(F)c1 [DFB] | undetectable | lower, but still detectable, IL-13 levels | remained low | lower global IFNγ production | lower degree of iNKT cell activation with a limited transactivation of NK cells | – | – | – | – | – | – | –
3 | – | 25–50 fold | – | CCCCCCCCCCCCCC[C@@H](O)[C@@H](O)[C@H](CO[C@H]1O[C@H](CO)[C@H](O)[C@H](O)[C@H]1O)NC(=O)c1ccc(C)cc1 [Tol] | detectable IL-12 generation | high IL-13 levels | enhanced IL-18 levels compared to vehicle control | high global production of IFNγ | – | – | – | – | – | – | – | substantially lower iNKT cell response

Continued, compound first:

Row | SMILES | EC50 (human iNKT cell clones) | lipid excess at which tetramers were efficiently loaded (hCD1d) | binding to hCD1d (hCD1d) | IL-12 levels in supernatants [1] | IL-13 levels in supernatants [1] | IL-18 levels in supernatants [1] | global IFNγ production in supernatants [1] | ability to activate iNKT cells and stimulate NK cell transactivation (IFNγ+ cells) [1] | CD40L and IFNγ expression by iNKT cells ([1]; iNKT/PBMC 1/10, dose range) | reactivity of HDD3 iNKT cell clone (human iNKT cell clones; CD4+ clone HDD3) | reactivity of a fraction of the iNKT cell clones tested (human iNKT cell clones; primarily IL-13 production, limited induction of IFNγ) | clones with detectable reactivity (human iNKT cell clones; six clones tested) | staining of iNKT cell clones by analog-loaded hCD1d tetramers (Human iNKT TCRs) | stimulation of human iNKT cells in culture (human iNKT cells) | iNKT cell clone cytokine response / agonist activity (human iNKT cell clones)
4 | CCCCCCCCCCCCCC[C@@H](O)[C@@H](O)[C@H](CO[C@H]1O[C@H](CO)[C@H](O)[C@H](O)[C@H]1O)NC(=O)C12CC3CC(CC(C3)C1)C2 [AD] | > 10 µM | 25–50 fold | – | undetectable | lower, but still detectable, IL-13 levels | remained low | lower global IFNγ production | lower degree of iNKT cell activation with a limited transactivation of NK cells | induced with high doses | – | – | – | – | – | –
5 | CCCCCCCCCCCCCCCCCCCCCCCCCC(=O)N[C@@H](CC[C@H]1O[C@H](CO)[C@H](O)[C@H](O)[C@H]1O)[C@H](O)[C@H](O)CCCCCCCCCCCCCC [C-glycoside] | – | – | – | – | – | – | – | – | – | did not display detectable reactivity | weak, but detectable, reactivity | Two clones out of six clones tested | only a weak staining intensity of a subset of iNKT cell clones tested | only weakly stimulatory | –
6 | CCCCCCCCCCCCCC[C@@H](O)[C@@H](O)[C@@H](N)CO[C@H]1O[C@H](CO)[C@H](O)[C@H](O)[C@H]1O [Lyso] | – | – | – | undetectable | lower, but still detectable, IL-13 levels | remained low | lower global IFNγ production | lower degree of iNKT cell activation with a limited transactivation of NK cells | – | – | – | – | failed to detectably stain any of our iNKT cell clones | – | substantially lower iNKT cell response
